Results published in ChEMBL document CHEMBL3997819, “Synthesis and biological evaluation of heterocyclic analogues of pregnenolone as novel anti-osteoporotic agents” (2017).
Activity calls are given as the source filed them. The calls are words filed in the database; no cut-off is given here.

What was measured:
Calvarial osteoblast [1] = assay: Antiosteoporotic activity in mouse calvarial osteoblasts assessed as enhancement in ALP activity at 1 pM to 1 uM after 48 hrs by PNPP substrate-based spectrophotometric method relative to control; format: functional, cell-based
Calvarial osteoblast [2] = assay: Antiosteoporotic activity in mouse calvarial osteoblasts assessed as upregulation of BMP-2 mRNA levels at 1 pM measured at 24 hrs by real-time quantitative PCR method relative to control; format: functional
Calvarial osteoblast [3] = assay: Antiosteoporotic activity in mouse calvarial osteoblasts assessed as enhancement in ALP activity at 1 nM to 1 uM after 48 hrs by PNPP substrate-based spectrophotometric method relative to control; format: functional, cell-based
Calvarial osteoblast [4] = assay: Antiosteoporotic activity in mouse calvarial osteoblasts assessed as upregulation of Runx-2 mRNA levels at 1 pM measured at 24 hrs by real-time quantitative PCR method relative to control; format: functional
Calvarial osteoblast [5] = assay: Antiosteoporotic activity in mouse calvarial osteoblasts assessed as enhancement in ALP activity at 100 pM after 48 hrs by PNPP substrate-based spectrophotometric method relative to control; format: functional
Calvarial osteoblast [6] = assay: Antiosteoporotic activity in mouse calvarial osteoblasts assessed as increase in mineral nodule formation at 1 to 100 pM after 21 days by alizarin red-S dye-based optical densitometry relative to control; format: functional, cell-based
Calvarial osteoblast [7] = assay: Antiosteoporotic activity in mouse calvarial osteoblasts assessed as enhancement in ALP activity at 1 pM after 48 hrs by PNPP substrate-based spectrophotometric method relative to control; format: functional
Calvarial osteoblast [8] = assay: Antiosteoporotic activity in mouse calvarial osteoblasts assessed as upregulation of OCN mRNA levels at 1 pM measured at 24 hrs by real-time quantitative PCR method relative to control; format: functional

In the case of `C/C(=N\O)[C@H]1CC[C@H]2[C@@H]3CC=C4C[C@@H](O)CC[C@]4(C)[C@H]3CC[C@]12C`, the Activity (Calvarial osteoblast [1]) is reported as “Active”.

In the case of `C[C@]12CC[C@H]3[C@@H](CC=C4C[C@@H](O)CC[C@@]43C)[C@@H]1CC[C@@H]2c1ccc2cc(Br)cc(Br)c2n1`, the Activity (Calvarial osteoblast [1]) is reported as “Active”.

For `C[C@]12CC[C@H]3[C@@H](CC=C4C[C@@H](O)CC[C@@]43C)[C@@H]1CC[C@@H]2c1ccc2ccccc2n1`, the “fold change (FC)” value (Calvarial osteoblast [2]) was 2, the Activity (Calvarial osteoblast [3]) was “Active” and the “fold change (FC)” value (Calvarial osteoblast [4]) was 1.5. The Activity (Calvarial osteoblast [5]) was 85%, the Activity (Calvarial osteoblast [6]) was “Active” and the Activity (Calvarial osteoblast [7]) was 100%. The “fold change (FC)” value (Calvarial osteoblast [8]) was 3.

In the case of `CC(=O)O[C@H]1CC[C@@]2(C)C(=CC[C@H]3[C@@H]4CC[C@H](C(C)=O)[C@@]4(C)CC[C@@H]32)C1`, the Activity (Calvarial osteoblast [1]) is reported as “Active”.
